Assay results published in patent US20110178396A1, “Nicotinamide Derivatives” (CRC FOR BIOMEDICAL IMAGING DEVELOPMENT LTD., priority 2008, published 2011).

Test system: A375 human amelanotic melanoma tumour
Assay: Biodistribution in A375 melanoma tumour bearing mice
Assay type: in vivo, BALB/c nude mice
Details: A375 tumour, BALB/c nude mice; for Organ distribution Intestine / Organ distribution Liver / Organ distribution Spleen / Organ distribution Stomach / Organ distribution Thyroid / Organ distribution Tumour: mean ± S.D.; for Organ distribution Intestine / Organ distribution Liver / Organ distribution Spleen / Organ distribution Stomach / Organ distribution Thyroid / Organ distribution Tumour / Uptake Lung / uptake BLOOD / uptake BRAIN / uptake HEART / uptake KIDNEY / uptake LIVER / uptake TUMOUR: n = 5; for Uptake Lung / uptake BLOOD / uptake BRAIN / uptake HEART / uptake KIDNEY / uptake LIVER / uptake TUMOUR: mean ± SD
Experimental: Animal experiments were performed in compliance with the NHMRC Australian Code of Practice for the care and use of animals for scientific purposes. Female C57BL/6J black and BALB/c nude albino mice of 5 weeks age were obtained from the Animal Resources Centre, Western Australia. B16F0 murine melanoma cells were originally obtained from European Collection of Cell Cultures (UK) and A375 human amelanotic melanoma cells were originally obtained from American Type Culture Collection (USA). Before transplantation, B16F0 and A375 melanoma cells were maintained as a monolayer in RPMI culture medium supplemented with 10% foetal calf serum and antibiotics and passaged with trypsinisation. Early passages were frozen and stored in liquid nitrogen. Cells were passaged to P=10 and then discarded. Frozen aliquots were grown in a monolayer culture to between 80-95% confluence and for transplantation were trypsinised and washed with Ca^2+ and Mg^2+ free phosphate buffered saline (PBS). For inoculation, B16F0 melanoma cells were resuspended in Ca^2+ and Mg^2+ free PBS at 3 or 5×10^6 viable cells per ml and 0.1 ml was subcutaneously injected at the left flank of 6-7 weeks old C57BL/6J mice. Eleven days later, tumours could be palpated in >98% of inoculated animals. A375 human melanoma cells were resuspended at 1×10^7 viablecells per ml and 0.1 ml was injected subcutaneously at the left flank of 6 weeks old BALB/c nude mice and 25-26 days later tumours could be palpated with ˜60% of inoculated animals developing tumours.
Eleven days (B16F0 melanoma) and 25 days (A375 human melanoma) after tumour transplantation, the [^18F]nicotinamides (0.5-1.5 MBq, 100 μl) and [^123I]nicotinamide (0.37-0.74 MBq, 100 μl) derivatives were injected intravenously via the tail vein into mice (15-18 g). Time points of 1, 3, 6, 24, 48, 72 h after injection were chosen for determining the distribution of each compound in various organs and tissues for the iodine-123 labelled compounds and between 15 min and 6 hours (e.g. 15 min, 30 min, 1 h, 2 h, 4 h or 6 h) were chosen for the ^18F-labelled compounds. At defined times post injection, groups of mice (n=5) were weighed, sacrificed by CO2 administration followed by cervical dislocation and dissected. Selected organs were weighed and their radioactivity measured with a γ-counter. The remaining activity in the carcass was also determined in order to obtain the total activity in the mouse at defined time points. The fraction of injected activity (% ID) in the organ was calculated by comparison with suitable dilutions of the injected dose. Then, the radioactivity concentration in the organ (% ID/g) was found by dividing the % ID for each organ by the weight of the organ.

CCN(CC)CCNC(=O)c1cncc(I)c1 [[^123I]11, N-(2-(diethylamino)ethyl)-5-iodonicotinamide]
tumour standardized uptake value (SUVt) (1 h): 0.7 ± 0.1
Organ distribution Intestine (1 h): 14 ± 2 % ID/organ
Organ distribution Liver (1 h): 2.3 ± 0.2 % ID/organ
Organ distribution Spleen (1 h): 0.16 ± 0.01 % ID/organ
Organ distribution Stomach (1 h): 1.6 ± 0.2 % ID/organ
Organ distribution Thyroid (1 h): 0.40 ± 0.07 % ID/organ
Organ distribution Tumour (1 h): 0.40 ± 0.16 % ID/organ
Uptake Lung (1 h): 1.56 ± 0.2 % ID/g
uptake BLOOD (1 h): 1.4 ± 0.2 % ID/g
uptake BRAIN (1 h): 0.14 ± 0.02 % ID/g
uptake HEART (1 h): 0.8 ± 0.1 % ID/g
uptake KIDNEY (1 h): 1.9 ± 0.3 % ID/g
uptake LIVER (1 h): 2.2 ± 0.4 % ID/g
uptake TUMOUR (1 h): 1.2 ± 0.2 % ID/g
tumour standardized uptake value (SUVt) (6 h): 0.9 ± 0.2
Organ distribution Intestine (6 h): 2 ± 1 % ID/organ
Organ distribution Liver (6 h): 0.7 ± 0.2 % ID/organ
Organ distribution Spleen (6 h): 0.03 ± 0.01 % ID/organ
Organ distribution Stomach (6 h): 0.4 ± 0.1 % ID/organ
Organ distribution Thyroid (6 h): 1.0 ± 0.5 % ID/organ
Organ distribution Tumour (6 h): 0.13 ± 0.06 % ID/organ
Uptake Lung (6 h): 0.4 ± 0.2 % ID/g
uptake BLOOD (6 h): 0.5 ± 0.2 % ID/g
uptake BRAIN (6 h): 0.03 ± 0.01 % ID/g
uptake HEART (6 h): 0.18 ± 0.07 % ID/g
uptake KIDNEY (6 h): 0.47 ± 0.17 % ID/g
uptake LIVER (6 h): 0.7 ± 0.3 % ID/g
uptake TUMOUR (6 h): 0.4 ± 0.1 % ID/g
tumour standardized uptake value (SUVt) (24 h): 0.3 ± 0.1
Organ distribution Intestine (24 h): 0.04 ± 0.01 % ID/organ
Organ distribution Liver (24 h): 0.09 ± 0.02 % ID/organ
Organ distribution Spleen (24 h): 0.002 % ID/organ
Organ distribution Stomach (24 h): 0.01 ± 0.00 % ID/organ
Organ distribution Thyroid (24 h): 1.4 ± 0.8 % ID/organ
Organ distribution Tumour (24 h): 0.001 % ID/organ
Uptake Lung (24 h): 0.015 ± 0.004 % ID/g
uptake BLOOD (24 h): 0.013 ± 0.002 % ID/g
uptake BRAIN (24 h): 0.002 ± 0.001 % ID/g
uptake HEART (24 h): 0.012 ± 0.003 % ID/g
uptake KIDNEY (24 h): 0.013 ± 0.002 % ID/g
uptake LIVER (24 h): 0.08 ± 0.02 % ID/g
uptake TUMOUR (24 h): 0.007 ± 0.002 % ID/g
